# Results reported in ChEMBL document CHEMBL5365464, “Structure-Based Optimization of the Third Generation Type II Macrocycle TRK Inhibitors with Improved Activity against Solvent-Front, xDFG, and Gatekeeper Mutations” (J Med Chem, 2023).
# Columns and labels:
# [1] = molecular target: Vascular endothelial growth factor receptor 3 (Homo sapiens, UniProt P35916); experiment: Inhibition of FLT4 (unknown origin)
# [2] = Oral bioavailability in ICR mouse at 10 mg/kg measured upto 24 hrs by LC-MS/MS analysis; type: ADME, organism-based; settings: in vivo
# [3] = Cmax in ICR mouse at 10 mg/kg, po measured upto 24 hrs by LC-MS/MS analysis; type: ADME, organism-based; parameters: dose 10 mg/kg, time < 24 hrs, route po; settings: in vivo
# [4] = Tmax in ICR mouse at 10 mg/kg, po measured upto 24 hrs by LC-MS/MS analysis; type: ADME, organism-based; settings: in vivo
# [5] = AUC (0 to t) in ICR mouse at 10 mg/kg, po measured upto 24 hrs by LC-MS/MS analysis; type: ADME, organism-based; parameters: time < 24 hrs, dose 10 mg/kg, route po; settings: in vivo
# [6] = molecular target: Ribosomal protein S6 kinase; experiment: Inhibition of P70S6K (unknown origin); type: protein assay, Homo sapiens
# [7] = Tmax in ICR mouse at 2.0 mg/kg, iv measured upto 24 hrs by LC-MS/MS analysis; type: ADME, organism-based; settings: in vivo
# [8] = AUC (0 to infinity) in ICR mouse at 10 mg/kg, po measured upto 24 hrs by LC-MS/MS analysis; type: ADME, organism-based; parameters: dose 10 mg/kg, time < 24 hrs, route po; settings: in vivo
# [9] = molecular target: Ephrin type-A receptor 5 (Homo sapiens, UniProt P54756); experiment: Inhibition of EphA5 (unknown origin)
# [10] = AUC (0 to t) in ICR mouse at 2.0 mg/kg, iv measured upto 24 hrs by LC-MS/MS analysis; type: ADME, organism-based; parameters: time < 24 hrs, dose 2 mg/kg, route iv; settings: in vivo
# [11] = molecular target: Cyclin-dependent kinase 14 (Homo sapiens, UniProt O94921); experiment: Inhibition of CDK14 (unknown origin)
# [12] = molecular target: Ephrin type-A receptor 2 (Homo sapiens, UniProt P29317); experiment: Inhibition of EphA2 (unknown origin)
# [13] = molecular target: Receptor-type tyrosine-protein kinase FLT3 (Homo sapiens, UniProt P36888); experiment: Inhibition of FLT3 (unknown origin)
# [14] = molecular target: Tyrosine-protein kinase receptor UFO (Homo sapiens, UniProt P30530); experiment: Inhibition of Axl (unknown origin)
# [15] = molecular target: Vascular endothelial growth factor receptor 2 (Homo sapiens, UniProt P35968); experiment: Inhibition of KDR (unknown origin)
# [16] = molecular target: Epithelial discoidin domain-containing receptor 1 (Homo sapiens, UniProt Q08345); experiment: Inhibition of DDR1 (unknown origin)
# [17] = Cmax in ICR mouse at 2.0 mg/kg, iv measured upto 24 hrs by LC-MS/MS analysis; type: ADME, organism-based; parameters: dose 2 mg/kg, time < 24 hrs, route iv; settings: in vivo
# [18] = molecular target: Proto-oncogene tyrosine-protein kinase receptor Ret (Homo sapiens, UniProt P07949); experiment: Inhibition of RET (unknown origin)
# [19] = Half life in ICR mouse at 10 mg/kg, po measured upto 24 hrs by LC-MS/MS analysis; type: ADME, organism-based; settings: in vivo
# [20] = molecular target: Tyrosine-protein kinase HCK (Homo sapiens, UniProt P08631); experiment: Inhibition of Hck (unknown origin)
# [21] = Toxicity in CB17-SCID mouse assessed as drug tolerance at 50 mg/kg/day administered via oral gavage measured every 2 days for 12 days; type: organism-based; settings: in vivo, 288 h, time 12 day
# [22] = Toxicity in CB17-SCID mouse assessed as mortality at 50 mg/kg/day administered via oral gavage measured every 2 days for 12 days; type: organism-based; settings: in vivo, 288 h, time 12 day
# [23] = molecular target: Ephrin type-A receptor 7 (Homo sapiens, UniProt Q15375); experiment: Inhibition of EphA7 (unknown origin)
# [24] = Toxicity in CB17-SCID mouse assessed as effect on body weight loss at 50 mg/kg/day administered via oral gavage measured every 2 days for 12 days; type: organism-based; settings: in vivo, 288 h, time 12 day
# [25] = molecular target: Muscle, skeletal receptor tyrosine-protein kinase (Homo sapiens, UniProt O15146); experiment: Inhibition of Musk (unknown origin)
# [26] = molecular target: Angiopoietin-1 receptor (Homo sapiens, UniProt Q02763); experiment: Inhibition of Tie2 (unknown origin)
# [27] = molecular target: Tyrosine-protein kinase Mer (Homo sapiens, UniProt Q12866); experiment: Inhibition of Mer (unknown origin)
# [28] = Clearance in ICR mouse at 2.0 mg/kg, iv measured upto 24 hrs by LC-MS/MS analysis; type: ADME, organism-based; settings: in vivo
# [29] = Half life in ICR mouse at 2.0 mg/kg, iv measured upto 24 hrs by LC-MS/MS analysis; type: ADME, organism-based; settings: in vivo
# [30] = AUC (0 to infinity) in ICR mouse at 2.0 mg/kg, iv measured upto 24 hrs by LC-MS/MS analysis; type: ADME, organism-based; parameters: dose 2 mg/kg, time < 24 hrs, route iv; settings: in vivo
# Sequence of Ephrin type-A receptor 2 (P29317 whole entry): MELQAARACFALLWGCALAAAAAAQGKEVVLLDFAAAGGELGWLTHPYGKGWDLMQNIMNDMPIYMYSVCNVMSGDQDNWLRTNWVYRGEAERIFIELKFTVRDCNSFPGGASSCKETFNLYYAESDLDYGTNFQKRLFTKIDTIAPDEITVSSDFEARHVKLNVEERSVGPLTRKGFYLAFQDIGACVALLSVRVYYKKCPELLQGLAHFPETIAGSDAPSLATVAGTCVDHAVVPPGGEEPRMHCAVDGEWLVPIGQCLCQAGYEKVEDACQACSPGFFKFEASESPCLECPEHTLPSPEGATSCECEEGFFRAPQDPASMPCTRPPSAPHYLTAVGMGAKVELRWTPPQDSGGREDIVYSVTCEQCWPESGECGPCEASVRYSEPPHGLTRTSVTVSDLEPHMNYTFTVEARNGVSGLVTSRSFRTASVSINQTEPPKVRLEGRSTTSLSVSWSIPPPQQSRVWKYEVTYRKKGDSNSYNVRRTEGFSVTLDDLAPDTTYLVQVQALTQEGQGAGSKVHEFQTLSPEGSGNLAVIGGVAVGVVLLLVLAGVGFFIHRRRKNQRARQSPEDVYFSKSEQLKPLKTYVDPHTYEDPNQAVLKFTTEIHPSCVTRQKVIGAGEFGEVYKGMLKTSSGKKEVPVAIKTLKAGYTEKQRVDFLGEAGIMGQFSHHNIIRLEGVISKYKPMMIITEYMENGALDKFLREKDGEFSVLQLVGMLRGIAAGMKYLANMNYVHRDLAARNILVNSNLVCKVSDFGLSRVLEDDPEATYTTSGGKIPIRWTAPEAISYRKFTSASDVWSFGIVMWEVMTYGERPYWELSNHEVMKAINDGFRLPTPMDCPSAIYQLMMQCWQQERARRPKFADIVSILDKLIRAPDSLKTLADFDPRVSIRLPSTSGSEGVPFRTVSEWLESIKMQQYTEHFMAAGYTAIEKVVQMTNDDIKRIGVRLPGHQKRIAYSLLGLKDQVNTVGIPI
# Sequence of Cyclin-dependent kinase 14 (O94921 whole entry): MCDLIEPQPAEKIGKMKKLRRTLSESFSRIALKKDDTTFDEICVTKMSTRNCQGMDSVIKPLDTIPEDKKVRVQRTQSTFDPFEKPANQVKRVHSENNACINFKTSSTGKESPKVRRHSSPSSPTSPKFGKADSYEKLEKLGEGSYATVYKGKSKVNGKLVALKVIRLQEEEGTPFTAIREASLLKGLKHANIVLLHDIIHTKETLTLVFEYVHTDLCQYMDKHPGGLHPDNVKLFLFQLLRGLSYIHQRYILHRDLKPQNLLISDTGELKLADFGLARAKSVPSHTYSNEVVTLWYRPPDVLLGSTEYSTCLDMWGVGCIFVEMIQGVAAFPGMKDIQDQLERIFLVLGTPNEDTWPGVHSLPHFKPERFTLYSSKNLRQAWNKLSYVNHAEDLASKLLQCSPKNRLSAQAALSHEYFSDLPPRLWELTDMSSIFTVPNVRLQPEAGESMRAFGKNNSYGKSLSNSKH
# Sequence of Vascular endothelial growth factor receptor 2 (P35968 whole entry, the tested form may be a part): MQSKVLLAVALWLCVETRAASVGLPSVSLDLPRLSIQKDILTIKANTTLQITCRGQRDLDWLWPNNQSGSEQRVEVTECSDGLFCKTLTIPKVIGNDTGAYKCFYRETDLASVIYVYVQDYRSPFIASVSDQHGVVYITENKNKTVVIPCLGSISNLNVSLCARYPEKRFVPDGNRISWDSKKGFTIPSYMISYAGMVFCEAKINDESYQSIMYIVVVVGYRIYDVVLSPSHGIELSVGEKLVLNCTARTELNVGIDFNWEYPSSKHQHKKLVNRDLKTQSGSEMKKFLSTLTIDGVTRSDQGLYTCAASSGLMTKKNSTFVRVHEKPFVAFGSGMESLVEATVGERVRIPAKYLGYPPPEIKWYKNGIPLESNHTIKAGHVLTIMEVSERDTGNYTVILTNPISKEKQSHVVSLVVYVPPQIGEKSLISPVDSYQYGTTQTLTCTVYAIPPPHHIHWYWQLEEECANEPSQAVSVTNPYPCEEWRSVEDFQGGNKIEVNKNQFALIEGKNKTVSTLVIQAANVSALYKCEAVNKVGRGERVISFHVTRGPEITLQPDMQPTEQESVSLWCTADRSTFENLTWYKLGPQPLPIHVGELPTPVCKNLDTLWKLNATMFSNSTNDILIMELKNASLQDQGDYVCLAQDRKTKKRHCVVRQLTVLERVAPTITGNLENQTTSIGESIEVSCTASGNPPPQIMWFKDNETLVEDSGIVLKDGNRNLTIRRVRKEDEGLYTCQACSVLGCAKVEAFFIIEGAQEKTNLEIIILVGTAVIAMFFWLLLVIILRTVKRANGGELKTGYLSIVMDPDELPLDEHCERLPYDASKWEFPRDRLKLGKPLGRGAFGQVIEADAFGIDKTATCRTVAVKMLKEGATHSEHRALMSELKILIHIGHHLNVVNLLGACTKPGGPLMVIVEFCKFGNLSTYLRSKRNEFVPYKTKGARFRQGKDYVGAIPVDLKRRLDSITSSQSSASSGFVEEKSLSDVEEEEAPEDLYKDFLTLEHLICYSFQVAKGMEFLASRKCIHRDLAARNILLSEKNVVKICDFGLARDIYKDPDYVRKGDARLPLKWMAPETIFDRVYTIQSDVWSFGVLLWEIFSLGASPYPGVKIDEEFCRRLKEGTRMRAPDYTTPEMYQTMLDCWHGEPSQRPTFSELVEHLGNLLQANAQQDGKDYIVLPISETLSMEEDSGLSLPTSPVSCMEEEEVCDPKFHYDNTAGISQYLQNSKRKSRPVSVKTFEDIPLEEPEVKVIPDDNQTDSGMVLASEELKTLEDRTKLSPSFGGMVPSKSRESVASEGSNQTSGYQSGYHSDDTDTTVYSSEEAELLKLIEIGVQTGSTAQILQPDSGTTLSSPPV
# Sequence of Ephrin type-A receptor 5 (P54756 whole entry): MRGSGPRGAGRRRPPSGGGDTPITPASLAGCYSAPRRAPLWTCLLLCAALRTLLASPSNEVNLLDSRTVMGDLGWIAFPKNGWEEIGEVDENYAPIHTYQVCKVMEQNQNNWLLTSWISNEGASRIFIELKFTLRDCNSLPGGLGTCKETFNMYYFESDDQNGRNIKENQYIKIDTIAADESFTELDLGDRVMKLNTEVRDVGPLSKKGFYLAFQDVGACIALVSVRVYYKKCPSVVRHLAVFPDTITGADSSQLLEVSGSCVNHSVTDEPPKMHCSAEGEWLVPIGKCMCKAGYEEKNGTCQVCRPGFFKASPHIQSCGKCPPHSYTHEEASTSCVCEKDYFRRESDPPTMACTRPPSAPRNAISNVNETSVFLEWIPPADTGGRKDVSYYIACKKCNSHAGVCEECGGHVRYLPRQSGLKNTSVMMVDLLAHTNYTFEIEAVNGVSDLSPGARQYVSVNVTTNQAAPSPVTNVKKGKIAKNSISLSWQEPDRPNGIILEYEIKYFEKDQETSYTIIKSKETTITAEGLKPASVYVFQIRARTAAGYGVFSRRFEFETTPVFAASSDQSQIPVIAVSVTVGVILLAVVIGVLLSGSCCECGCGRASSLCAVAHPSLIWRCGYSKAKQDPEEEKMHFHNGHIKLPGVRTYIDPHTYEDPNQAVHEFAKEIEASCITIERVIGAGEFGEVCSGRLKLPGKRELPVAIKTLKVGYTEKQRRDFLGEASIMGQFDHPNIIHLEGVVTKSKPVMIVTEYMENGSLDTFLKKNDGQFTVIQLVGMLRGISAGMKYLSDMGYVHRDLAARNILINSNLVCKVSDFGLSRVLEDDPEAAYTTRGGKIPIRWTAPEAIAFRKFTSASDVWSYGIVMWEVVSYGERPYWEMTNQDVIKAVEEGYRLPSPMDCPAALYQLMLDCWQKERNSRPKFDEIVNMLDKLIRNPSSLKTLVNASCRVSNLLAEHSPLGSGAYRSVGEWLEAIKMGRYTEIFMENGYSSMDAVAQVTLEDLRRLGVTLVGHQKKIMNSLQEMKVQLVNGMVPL
# Sequence of Angiopoietin-1 receptor (Q02763 whole entry): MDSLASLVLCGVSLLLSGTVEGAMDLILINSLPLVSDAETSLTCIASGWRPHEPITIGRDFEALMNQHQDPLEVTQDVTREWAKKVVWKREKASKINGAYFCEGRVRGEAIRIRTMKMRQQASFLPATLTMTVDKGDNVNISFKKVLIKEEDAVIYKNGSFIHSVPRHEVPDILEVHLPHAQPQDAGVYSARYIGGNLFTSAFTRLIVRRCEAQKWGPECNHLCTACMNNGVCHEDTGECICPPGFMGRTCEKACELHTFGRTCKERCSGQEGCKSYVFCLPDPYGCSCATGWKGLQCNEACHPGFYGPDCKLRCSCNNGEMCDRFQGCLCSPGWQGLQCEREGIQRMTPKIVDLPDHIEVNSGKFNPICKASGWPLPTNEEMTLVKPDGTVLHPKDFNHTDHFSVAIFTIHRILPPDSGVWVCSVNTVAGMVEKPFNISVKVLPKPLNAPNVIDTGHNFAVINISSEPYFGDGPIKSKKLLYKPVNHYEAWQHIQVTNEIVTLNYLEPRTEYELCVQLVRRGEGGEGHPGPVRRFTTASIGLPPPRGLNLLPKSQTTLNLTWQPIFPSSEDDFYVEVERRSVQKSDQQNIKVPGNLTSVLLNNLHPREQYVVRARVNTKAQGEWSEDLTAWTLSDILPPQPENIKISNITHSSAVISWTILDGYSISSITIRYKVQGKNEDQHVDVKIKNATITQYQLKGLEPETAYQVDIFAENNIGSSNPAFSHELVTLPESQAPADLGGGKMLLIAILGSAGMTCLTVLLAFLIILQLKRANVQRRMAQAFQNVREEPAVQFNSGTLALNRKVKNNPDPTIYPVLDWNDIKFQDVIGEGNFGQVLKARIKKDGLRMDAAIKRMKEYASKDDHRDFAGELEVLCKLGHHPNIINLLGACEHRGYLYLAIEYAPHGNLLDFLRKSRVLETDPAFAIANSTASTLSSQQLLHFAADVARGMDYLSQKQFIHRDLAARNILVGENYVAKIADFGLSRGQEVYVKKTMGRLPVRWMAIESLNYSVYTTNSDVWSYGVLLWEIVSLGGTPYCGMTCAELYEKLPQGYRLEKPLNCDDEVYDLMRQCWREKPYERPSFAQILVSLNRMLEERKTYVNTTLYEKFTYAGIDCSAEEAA
smiles,measurement,setting,value
Cc1c2cc(cc1C(=O)Nc1cc(CN3CCN(C)CC3)cc(C3CC3)c1)OCCCCCCCNC(=O)c1ccc3ncc(n3n1)C#C2,IC50,[1],0.0594 µM
same,bioavailability,[2],11%
same,Cmax,[3],0.0952 µg/mL
same,Tmax,[4],2.17 h
same,AUC(0-t) at 24 h,[5],0.501 µg·h/mL
same,IC50,[6],0.06682 µM
same,Tmax,[7],4.8 min
same,AUC(0-inf),[8],0.707 µg·h/mL
same,IC50,[9],0.023 µM
same,AUC(0-t) at 24 h,[10],1.2 µg·h/mL
same,IC50,[11],0.155 µM
same,IC50,[12],0.0128 µM
same,IC50,[13],0.0116 µM
same,IC50,[14],1.55 µM
same,IC50,[15],0.0736 µM
same,IC50,[16],0.0238 µM
same,Cmax,[17],0.626 µg/mL
same,IC50,[18],0.00748 µM
same,half-life,[19],4.3 h
same,IC50,[20],0.253 µM
same,Activity,[21],Non-Toxic
same,Activity,[22],Non-Toxic
same,IC50,[23],0.00177 µM
same,Activity,[24],Non-Toxic
same,IC50,[25],0.0128 µM
same,IC50,[26],0.0663 µM
same,IC50,[27],0.0259 µM
same,clearance,[28],1.6 L/h/kg
same,half-life,[29],1.92 h
same,AUC(0-inf),[30],1.28 µg·h/mL
